Results on nine molecules are retold here after the NIST ThermoML archive (doi:10.1016/j.fluid.2011.06.001).

± gives the expanded uncertainty stated by the source.

Data set [1] can be described thus: excess molar enthalpy (molar enthalpy of mixing); xn = mol fraction of the nth substance listed. The note with it: 298.15 K, 101 kPa, Liquid, Flow calorimetry.
The conditions of data set [2]: Liquid, Closed cell (Static) method.

For the molecule `CC(C)(C)Cl` [2-chloro-2-methylpropane] + CC(C)OC(C)C, the excess molar enthalpy in data set [1] (x1 = 0.1093) amounted to 0.00108 ± 0.000191 kcal/mol; in data set [1] (x1 = 0.2192), 0.00167 ± 0.000191 kcal/mol; in data set [1] (x1 = 0.3295) it was 0.00191 ± 0.000191 kcal/mol; in data set [1] (x1 = 0.4402), 0.00196 ± 0.000191 kcal/mol; in data set [1] (x1 = 0.5512), 0.0017 ± 0.000191 kcal/mol; in data set [1] (x1 = 0.6628), 0.00127 ± 0.000191 kcal/mol. In addition, the excess molar enthalpy in data set [1] (x1 = 0.7747) was determined as 0.000837 ± 0.000191 kcal/mol; in data set [1] (x1 = 0.8872), 0.000311 ± 0.000191 kcal/mol.
Regarding `CCC(C)Cl` (stereo not drawn) [2-chlorobutane], the vapor or sublimation pressure (in general, the equilibrium pressure above the liquid or solid) in data set [2] (288.15 K) amounted to 13.36 ± 0.035 kPa; in data set [2] (298.15 K), 20.91 ± 0.049 kPa; in data set [2] (308.15 K), 31.55 ± 0.068 kPa.
In the case of `CC(C)OC(C)C` [diisopropyl ether], the “vapor or sublimation pressure” value came to 12.65 ± 0.034 kPa in data set [2] (288.15 K), 20 ± 0.047 kPa in data set [2] (298.15 K) and 30.46 ± 0.066 kPa in data set [2] (308.15 K).
Take `CC(C)CCl` [1-chloro-2-methylpropane] + CC(C)OC(C)C: the excess molar enthalpy in data set [1] (x1 = 0.0907) was -0.00722 ± 0.000263 kcal/mol; in data set [1] (x1 = 0.1815) it was -0.0129 ± 0.000359 kcal/mol; in data set [1] (x1 = 0.2726) it was -0.0175 ± 0.000454 kcal/mol; in data set [1] (x1 = 0.3634), -0.0206 ± 0.000526 kcal/mol; in data set [1] (x1 = 0.4544) it was -0.0227 ± 0.00055 kcal/mol; in data set [1] (x1 = 0.5453) it was -0.0229 ± 0.000574 kcal/mol. Also, the excess molar enthalpy in data set [1] (x1 = 0.6361) is -0.0219 ± 0.00055 kcal/mol; in data set [1] (x1 = 0.727) it was -0.0189 ± 0.000478 kcal/mol; in data set [1] (x1 = 0.8179), -0.0147 ± 0.000406 kcal/mol; in data set [1] (x1 = 0.909) it was -0.00822 ± 0.000287 kcal/mol.
For the molecule `CC(C)CCl` [1-chloro-2-methylpropane], the “vapor or sublimation pressure” value in data set [2] (288.15 K) was 13 ± 0.034 kPa; in data set [2] (298.15 K), 20.35 ± 0.048 kPa; in data set [2] (308.15 K) it was 30.45 ± 0.066 kPa.
As to `CC(C)(C)Cl` [2-chloro-2-methylpropane], the figures for the “vapor or sublimation pressure” value in data set [2] (288.15 K), in data set [2] (298.15 K) and in data set [2] (308.15 K) were 26.42 ± 0.062 kPa, 40.13 ± 0.087 kPa and 59.52 ± 0.12 kPa, respectively.
In the case of `CCC(C)Cl` (stereo not drawn) [2-chlorobutane] + CC(C)OC(C)C, the excess molar enthalpy in data set [1] (x1 = 0.0909) was -0.00368 ± 0.000215 kcal/mol; in data set [1] (x1 = 0.1819), -0.00717 ± 0.000263 kcal/mol; in data set [1] (x1 = 0.2726), -0.0104 ± 0.000311 kcal/mol; in data set [1] (x1 = 0.3636), -0.0125 ± 0.000359 kcal/mol; in data set [1] (x1 = 0.4546) it was -0.0137 ± 0.000382 kcal/mol; in data set [1] (x1 = 0.5454) it was -0.0144 ± 0.000406 kcal/mol. For the same molecule, the excess molar enthalpy in data set [1] (x1 = 0.6365) was -0.0143 ± 0.000406 kcal/mol; in data set [1] (x1 = 0.7273), -0.0127 ± 0.000359 kcal/mol; in data set [1] (x1 = 0.8182), -0.00985 ± 0.000311 kcal/mol; in data set [1] (x1 = 0.9092), -0.006 ± 0.000239 kcal/mol.
Consider `CCCCCl` [1-chlorobutane] + CC(C)OC(C)C, for which the excess molar enthalpy was -0.00684 ± 0.000263 kcal/mol in data set [1] (x1 = 0.0908); -0.0131 ± 0.000382 kcal/mol in data set [1] (x1 = 0.1817); -0.0175 ± 0.000454 kcal/mol in data set [1] (x1 = 0.2726); -0.0209 ± 0.000526 kcal/mol in data set [1] (x1 = 0.3636); -0.0228 ± 0.000574 kcal/mol in data set [1] (x1 = 0.4545); -0.0228 ± 0.000574 kcal/mol in data set [1] (x1 = 0.5453). Also, the excess molar enthalpy is -0.0216 ± 0.00055 kcal/mol in data set [1] (x1 = 0.6363), -0.0188 ± 0.000478 kcal/mol in data set [1] (x1 = 0.7273), -0.014 ± 0.000382 kcal/mol in data set [1] (x1 = 0.818) and -0.00774 ± 0.000263 kcal/mol in data set [1] (x1 = 0.909).
In the case of `CCCCCl` [1-chlorobutane], the “vapor or sublimation pressure” value in data set [2] (288.15 K) was 8.4 ± 0.025 kPa; in data set [2] (298.15 K), 13.52 ± 0.034 kPa; in data set [2] (308.15 K) it was 21.04 ± 0.048 kPa.
